Measurements from US20150030615A1, “BIOMARKERS FOR CANCER STEM CELLS AND RELATED METHODS OF USE” (VERASTEM, INC., priority 2012, published 2015).
Entries after “also recorded” stand apart in the source; their conditions may differ.

System: tumorspheres of SUM159 cells
Assay: gene expression in sequentially passaged tumorspheres treated with chemotherapeutic agents
Format: cell-based, human
Conditions: paclitaxel-treated SUM159 tumorspheres; 11 CSC-associated genes; percentage change normalized to primary SUM159 tumorspheres (FIG. 14)

With `CC(=O)O[C@H]1C(=O)[C@@]2(C)[C@H]([C@H](OC(=O)c3ccccc3)[C@]3(O)C[C@H](OC(=O)[C@H](O)[C@@H](NC(=O)c4ccccc4)c4ccccc4)C(C)=C1C3(C)C)[C@]1(OC(C)=O)CO[C@@H]1C[C@@H]2O` [paclitaxel] the “expression of upregulated cancer stem cell associated genes” value was “enhancement of the upregulation; also recorded: enhanced further”.
